From patent publication US10709784B2, “Metal chelating compositions and methods for controlling the growth or activities of a living cell or organism” (CHELATION PARTNERS INCORPORATED, priority 2011, dated 2020)
Like-named read-outs stand apart in the source and are kept apart here.

How the values were obtained:
P. aeruginosa = assay: MIC of chelators in Fe-restricted RPMI; assay type: cell-based, Pseudomonas aeruginosa
Procedure: (§1) Soluble chelating compositions prepared as in example 4 and example 6 as well as the commercially clinically used low molecular weight (<1500 Da) chelators desferal (Novartis Pharmaceutical Company) and deferiprone (Apotex Pharmaceutical Company) were tested as to their MICs against representative pathogenic bacterial species in RPMI medium that had been treated as in example 38 but to which Fe was re-added to known concentrations that permitted growth of the bacteria under partially Fe restrictive conditions, i.e., so as to simulate the low Fe environmental supply available during infection by these bacteria in man or other animals. MIC testing was done in a manner similar to that described for example 15 but with test series being conducted in multi-well microtiter plates, each well providing a separate treatment test.
(§2) The clinically used chelators were not inhibitory in the case of Pseudomonas aeruginosa with no inhibition observed at the highest concentration tested (300 μg/ml for desferal and 100 μg/ml for deferiprone). Staphylococcus aureus was not inhibited by desferal and was inhibited by deferiprone to a lesser extent than for the soluble compositions of the present invention. Conversely, Escherichia coli was not inhibited by deferiprone but was inhibited substantially by desferal.

S. aureus = assay: MIC of chelators in Fe-restricted RPMI; assay type: cell-based; conditions: Staphylococcus aureus
Procedure: as §1, §2

E. coli = assay: MIC of chelators in Fe-restricted RPMI; assay type: cell-based, Escherichia coli
Procedure: as §1, §2

[1] = Overall Fe association constants; assay type: binding; conditions: Fe (III)
From the text: Measurement of the Fe binding strengths can be measured and compared for different chelating materials.

[2] = tested on: Clinical isolates of Staphylococcus aureus; assay: Growth inhibition of clinical isolates in MHB (turbidity 600 nm); assay type: cell-based; conditions: over 7 mM Fe binding equivalents, overnight
From the text: Clinical isolates of Staphylococcus aureus as obtained from human infections were obtained and are obtainable from the culture collection of Warren Grubb, Curtin University, Perth, Australia. It should be noted that the clinical isolates as obtained from patients at the Royal Perth Hospital in Perth Australia can be expected to have strong similarities to other clinical isolates of this bacterium as obtained elsewhere in the world as the genetic determinants of antibiotic resistance characteristics in Staphylococcus aureus are now generally understood. Thus, similar results to those shown in examples 14-17 can be expected with other clinical isolates as obtained elsewhere and having similar antibiotic resistance patterns to those tested for these examples. […]
A range of dilutions of the deferiprone or soluble chelating composition was prepared in MHB in test tubes so as to provide a range of added iron chelating capacity as measured in Fe binding equivalents. […] The tubes were incubated at an angle on a reciprocating shaker at 37° C. overnight and the growth results were scored as a percentage of growth based on measured turbidity at a wavelength of 600 nm with a spectrophotometer of the test sample, as compared to a control samples that had received no added deferiprone or soluble chelating composition. […]

[3] = tested on: Candida albicans ATCC 10231; assay: Growth with chelating materials of different molecular weight, 84 hours; assay type: cell-based; conditions: 30° C., defined medium without added iron, FIG. 8
Procedure: Candida albicans ATCC 10231 was tested for its sensitivities to: the medical chelator deferiprone (#1 in the graph of FIG. 8) (a product of Apotex Pharmaceuticals); the precursor chemicals used for the preparation of soluble chelating compositions of the present invention, including 3-hydroxy-2-methyl-4-pyrone (#2 in the graph of FIG. 8), AHMP as from Example 1 (#3 in the graph of FIG. 8) and MAHMP as from Example 2 (#4 in the graph of FIG. 8) and also the soluble chelating composition as from Example 4 (#5 in the graph of FIG. 8). The yeast was grown in defined medium as for Example 18 with no additional added iron (i.e., the only but adequate Fe available for the yeast was contributed from being present along with the other added medium components). Growth of the yeast in the defined media with added test chelating materials was compared to control samples that had not received any of the chelating materials following 84 hours of incubation and growth at 30° C. […] These chelators being internalized by the yeast were incapable of restricting iron supply to the yeast cells. […] Thus, low molecular weight chelators such as deferiprone and similar compounds permitted growth while the soluble chelating composition that contained functional groups similar to deferiprone but was a molecular weight higher than 1500 Daltons restricted growth, eventhough the various compounds tested were each capable of binding iron through their pyridinone functionality.

[4] = tested on: antibiotic resistant strains of Staphylococcus aureus; assay: NCCLS MIC antibiotic sensitivity with added chelator; assay type: cell-based; conditions: strain WBG525
Procedure: Sensitive or antibiotic resistant strains of Staphylococcus aureus (S. aureus) were grown on blood agar plates overnight at 37° C. Four to six individual colonies of each strain were harvested into Mueller-Hinton broth (MHB) and incubated at 37° C. until they reached an optical density equal to or exceeding a 0.5 McFarland standard. The culture was diluted with MHB to equal 0.5 McFarland standard. Dilutions (10^−1) of these standards were used for inocula. Various stains of antibiotic resistant Staphylococcus aureus were used for these tests as shown in the results below. It should be appreciated that growing the bacterial strains on blood agar and then in MHB ensured the inoculum was not restricted for iron prior to the test but rather the bacterial cells were with ample endogenous iron supply.
A range of two-fold dilutions of a test antibiotic was prepared in MHB. […] Soluble and insoluble chelating compositions, as prepared in Example 6 or Example 5, or the free iron chelating agent deferiprone were added to the antibiotic containing tubes at known concentrations of iron binding capacity (referred to as iron binding equivalents) to allow direct comparison of the different compositions or free chelator. The final volume per tube was 500 μl. Bacterial inoculum, 25 μl of the 10^−1 dilutions of the appropriate S. aureus strain was added to each tube. The tubes were incubated at an angle on a reciprocating shaker at 37° C. overnight and results were scored as growth based on turbidity or no growth (lack of turbidity). The Minimum Inhibitory Concentration (MIC) for the antibiotic was determined from the growth results.
A series of tests was set up as in Example 15 with various antibiotic anti-cellular agents. The clinically isolated strains were obtained from the culture collection of Warren Grubb, Curtin University, Perth, Australia.
A series of antibiotic sensitivity tests was set up as in example 16 utilizing the soluble chelating compositions as prepared in Example 6. Separate test series with different clinically isolated Staphylococcus aureus strains, as obtained from the culture collection of Warren Grubb, Curtin University, Perth, Australia, and various antibiotics were employed but for each series a control test comprising addition of iron sufficient to supply two times the chelating capacity of the supplied chelating composition was also included.

[5] = tested on: Candida albicans ATCC 10231; assay: Fluconazole MIC (80% growth inhibition) with soluble chelator; assay type: cell-based
Procedure: Candida albicans ATCC 10231, yeast cells, as grown in defined medium with no additional added Fe as in example 18, were tested in the same media for their sensitivities to fluconazole, an anti-cellular agent as proto-typical of the azole class of antibiotics that are commonly used to control fungal growth and pathogenesis in humans and with fluconazole plus the soluble chelating composition, as prepared in Example 4. Fluconazole as a typical member of the azole class of anti-fungal antibiotics that function by inhibiting sterol synthesis.

[6] = tested on: Candida albicans ATCC 10231; assay: Challenge growth test, fluconazole and chelator within a semi-permeable device; assay type: cell-based
From the text: In one such culture, only medium was present as a control. […] The chelator was not added directly to the culture medium but was provided as within a dialysis membrane within the culture medium, such that only the external surfaces of the dialysis membrane device were in contact with the bulk of the culture medium, the chelator being within the membrane bag. The dialysis membrane was of the same type that had been used to prepare the soluble chelator and thus its use here ensured that the added chelator would be retained within the membrane device as in contact with the culture medium from within a semi-permeable membrane, i.e., the dialysis tubing. […] All four test cultures were inoculated with the yeast and growth was monitored at intervals in the test cultures by optical density measurement at 600 nm over a 120 hr test period.

[7] = tested on: Candida albicans ATCC 10231; assay: Preservative agent MIC (80% inhibition) challenge test with soluble chelator; assay type: cell-based
[8] = tested on: Candida albicans ATCC 10231; assay: Challenge growth test, sorbate and chelator within a semi-permeable device; assay type: cell-based; conditions: sorbate […] with 0.3 mg soluble chelator (example 4) in the semi-permeable device
From the text: In one such culture, only medium was present as a control. […] The chelator was not added directly to the culture medium but was provided as within a dialysis membrane within the culture medium, such that only the external surfaces of the dialysis membrane device were in contact with the bulk of the culture medium, the chelator being within the membrane bag. The dialysis membrane was of the same type that had been used to prepare the soluble chelator and thus its use here ensured that the added chelator would be retained within the membrane device as in contact with the culture medium from within a semi-permeable membrane, i.e., the dialysis tubing. Thus the chelator would not be in direct physical contact with the yeast cells while any iron or sorbate or other low molecular weight media constituents or low molecular weight yeast cell products in the test milieu could diffuse in or out of the semi-permeable device. In a fourth test, 0.3 mg soluble chelator within a similar dialysis bag was added but sorbate was not added to the medium. All four test cultures were inoculated with the yeast and growth was monitored at intervals in the test cultures by optical density measurement at 600 nm over a 120 hr test period.

[9] = Pseudomonas aeruginosa, treated RPMI with 0.02 μM Fe, read-out: MIC
[10] = Escherichia coli, treated RPMI with 0.02 μM Fe, read-out: MIC

Compound: CC(=O)N(O)CCCCCNC(=O)CCC(=O)N(O)CCCCCNC(=O)CCC(=O)N(O)CCCCCN [DESFERAL, deferoxamine]
- MIC (P. aeruginosa; [9]): > 300 µg/mL
- MIC (P. aeruginosa; treated RPMI with 0.09 μM Fe): >300 µg/mL
- MIC (S. aureus; treated RPMI with 0.02 μM Fe): > 300 µg/mL
- MIC (S. aureus; treated RPMI with 0.09 μM Fe): > 300 µg/mL
- MIC (E. coli; Escherichia coli, treated RPMI with 0.09 μM Fe): 0.59 µg/mL
- MIC (E. coli; [10]): 0.009 µg/mL

Compound: Cc1c(O)c(=O)ccn1C [Deferiprone, 1,2-dimethyl-3-hydroxy-pyridin-4-one]
- MIC (P. aeruginosa; [9]): > 100 µg/mL
- MIC (P. aeruginosa; treated RPMI with 0.09 μM Fe): >100 µg/mL
- Log 10 K(assoc) [1]: 36
- MIC (S. aureus; treated RPMI with 0.02 μM Fe): 12.5 µg/mL
- MIC (S. aureus; treated RPMI with 0.09 μM Fe): 25 µg/mL
- inhibition of growth [2]: about 15%
- growth of the yeast compared to control [3]: did not substantially restrict growth
- MIC (E. coli; [10]): > 100 µg/mL
- MIC (E. coli; treated RPMI with 0.09 μM Fe): >100 µg/mL
- MIC Streptomycin ([4]; chelator added 7.4 mM Fe binding equivalents, * slight growth <5% of control turbidity at 640 μg/ml): >640* μg/ml
- growth at 640 μg/ml streptomycin ([4]; chelator added 15 mM Fe binding equivalents): still allowed slight growth

Compound: OC(Cn1cncn1)(Cn1cncn1)c1ccc(F)cc1F [Fluconazole]
- MIC ([5]; ATCC10231, 96 h, Fluconazole alone, 4 d): > 6 µg/mL
- MIC ([5]; ATCC10231, 96 h, plus 25 μg/ml soluble chelator (example 4), 4 d): < 0.05 µg/mL
- MIC ([5]; ATCC10231, 96 h, plus Fe-saturated soluble chelator, 4 d): > 6 µg/mL
- MIC ([5]; ATCC10231, 96 h, plus […] soluble chelator (Example 4), 4 d): < 0.05 µg/mL
- MIC ([5]; ATCC10231, 240 h, Fluconazole alone, 10 d): > 6 µg/mL
- MIC ([5]; ATCC10231, 240 h, plus 25 μg/ml soluble chelator (example 4), 10 d): < 0.05 µg/mL
- MIC ([5]; ATCC10231, 240 h, plus Fe-saturated soluble chelator, 10 d): > 6 µg/mL
- MIC ([5]; ATCC10231, 240 h, plus […] soluble chelator (Example 4), 10 d): 0.05 µg/mL
- MIC ([5]; ATCC10231, Fluconazole alone, 42 d): > 6 µg/mL
- MIC ([5]; ATCC10231, plus 25 μg/ml Soluble chelator (Example 4), 42 d): < 0.05 µg/mL
- MIC ([5]; ATCC10231, plus Fe-saturated soluble chelator, 42 d): > 6 µg/mL
- MIC ([5]; ATCC10231, plus […] soluble chelator (Example 4), 42 d): 0.19 µg/mL
- yeast growth (OD 600 nm over 120 hr) ([6]; fluconazole 0.083 μg/ml alone): only delayed and partially restricted yeast growth
- yeast growth (OD 600 nm over 120 hr) ([6]; fluconazole 0.083 μg/ml with 0.3 mg soluble chelator (example 4) in the semi-permeable device): prevented growth completely

Compound: C/C=C/C=C/C(=O)[O-].[K+] [Sorbate, potassium sorbate]
- MIC ([7]; ATCC10231, 48 h, read-out: Sorbate or Paraben MIC, plus soluble chelating composition (Example 4) 25 μg/ml, 2 days): < 20 µg/mL
- MIC ([7]; ATCC10231, 48 h, read-out: Sorbate or Paraben MIC, plus soluble chelating composition (Example 4) […], 2 days): < 20 µg/mL
- MIC ([7]; ATCC10231, 48 h, read-out: Sorbate or Paraben MIC, preservative alone, 2 days): 120 µg/mL
- MIC ([7]; ATCC10231, 240 h, read-out: Sorbate or Paraben MIC, plus soluble chelating composition (Example 4) 25 μg/ml, 10 days): 30 µg/mL
- MIC ([7]; ATCC10231, 240 h, read-out: Sorbate or Paraben MIC, plus soluble chelating composition (Example 4) […], 10 days): < 20 µg/mL
- MIC ([7]; ATCC10231, 240 h, read-out: Sorbate or Paraben MIC, preservative alone, 10 days): 250 µg/mL
- yeast growth (OD 600 nm over 120 hr) [8]: prevented growth completely
